Data from the NIST ThermoML archive (doi:10.1021/acs.jced.8b00517).
Numbers after ± are expanded uncertainties.

Experiments:
[1] = refractive index (Na D-line) (dimensionless); settings: 293.15 K; 101.33 kPa; Liquid; Standard Abbe refractometry
[2] = Liquid; for mass density: 293.15 K, 101.33 kPa, Vibrating tube method; for vapor or sublimation pressure: Ebulliometric method (Recirculating still)
[3] = Boiling temperature at pressure P; settings: Liquid, Ebulliometric method (Recirculating still)

Row | refractive index [1] | mass density [2] [kg/m3] | Boiling temperature at pressure P ([3]; 19.9 kPa) [°C] | Boiling temperature at pressure P ([3]; 34.33 kPa) [°C] | Boiling temperature at pressure P ([3]; 39.89 kPa) [°C] | Boiling temperature at pressure P ([3]; 49.89 kPa) [°C] | Boiling temperature at pressure P ([3]; 58.58 kPa) [°C] | Boiling temperature at pressure P ([3]; 69.3 kPa) [°C] | Boiling temperature at pressure P ([3]; 79.88 kPa) [°C] | Boiling temperature at pressure P ([3]; 89.88 kPa) [°C] | Boiling temperature at pressure P ([3]; 98.88 kPa) [°C] | vapor or sublimation pressure ([2]; 343.15 K) [kPa] | vapor or sublimation pressure ([2]; 358.15 K) [kPa] | vapor or sublimation pressure ([2]; 363.15 K) [kPa] | SMILES
1 | 1.3959 ± 0.0009 | 801.49 ± 2 |  |  |  |  |  |  |  |  |  |  |  |  | CC(C)CO [2-methyl-1-propanol]
2 | 1.3906 ± 0.0009 | 805.86 ± 2 | 56.44 ± 0.22 | 70.32 ± 0.22 | 74.40 ± 0.19 | 80.62 ± 0.18 | 85.30 ± 0.17 | 90.4 ± 0.17 | 94.76 ± 0.17 | 98.53 ± 0.16 | 101.59 ± 0.16 | 34.4 ± 0.32 | 58.64 ± 0.39 | 69.36 ± 0.46 | CCCC(C)=O [pentan-2-one]
